pIC50: −log10 of the molar value. Where a name gives a salt, the structure may show the parent alone.

One may read the pIC50 as −log10 of the IC50, conventionally taken in molar units.

The target of the assay is Factor D (Homo sapiens (Human), UniProt P00746). In words: biochemical. The format is biochemical. To be noted: read-out: IC50.
Chain of Factor D (P00746 26-253): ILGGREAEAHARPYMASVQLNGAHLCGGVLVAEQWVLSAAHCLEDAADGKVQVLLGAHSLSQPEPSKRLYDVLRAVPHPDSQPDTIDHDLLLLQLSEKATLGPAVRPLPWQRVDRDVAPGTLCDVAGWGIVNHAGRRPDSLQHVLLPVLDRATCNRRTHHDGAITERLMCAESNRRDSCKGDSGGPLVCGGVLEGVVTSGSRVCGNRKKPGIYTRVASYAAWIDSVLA
In the case of `COC[C@@]12C[C@@H]1N(C(=O)Nc1cn(C(N)=O)c3ccccc13)[C@H](C(=O)NCc1cccc(Cl)c1F)C2` [Example 214, (1S,3S,5R)-5-Methoxymethyl-2-aza-bicyclo[3.1.0]hexane-2,3-dicarboxylic acid 2-[(1-carbamoyl-1H-indol-3-yl)-amide] 3-(3-chloro-2-fluoro-benzylamide)], the pIC50 is 5.80.
Then `CO[C@H]1[C@@H](C(=O)NCc2cccc(Cl)c2F)N(C(=O)Cn2nc(C(C)=O)c3ccncc32)C[C@@H]1F` [Example 682, (2S,3S,4S)-1-[2-(3-Acetyl-pyrazolo[3,4-c]pyridin-1-yl)-acetyl]-4-fluoro-3-methoxy-pyrrolidine-2-carboxylic acid 3-chloro-2-fluoro-benzylamide], with 7.92.
Turning to `CO[C@H]1[C@@H](C(=O)NC2(c3cccc(Cl)c3F)CC2)N(C(=O)Cn2nc(C(N)=O)c3cccnc32)C[C@@H]1F` [Example 659, 1-(2-{(2S,3S,4S)-2-[1-(3-Chloro-2-fluoro-phenyl)-cyclopropylcarbamoyl]-4-fluoro-3-methoxy-pyrrolidin-1-yl}-2-oxo-ethyl)-1H-pyrazolo[3,4-b]pyridine-3-carboxylic acid amide], the negative logarithm of the IC50 (pIC50) was 7.60.
For `NC(=O)n1cc(NC(=O)N2C[C@H](F)C[C@H]2CNC(=O)Cc2ccccc2)c2ccccc21` [Example 113, 3-{[(2S,4R)-4-Fluoro-2-(phenylacetylamino-methyl)-pyrrolidine-1-carbonyl]-amino}-indole-1-carboxylic acid amide], the negative logarithm of the IC50 (pIC50) is 5.94.
For `COc1ccc2c(c1)c(NC(=O)N1C[C@H](F)C[C@H]1C(=O)NCc1cccc(Cl)c1F)cn2C(N)=O` [Example 292, (2S,4R)-4-Fluoro-pyrrolidine-1,2-dicarboxylic acid 1-[(1-carbamoyl-5-methoxy-1H-indol-3-yl)-amide] 2-(3-chloro-2-fluoro-benzylamide)], the negative logarithm of the IC50 (pIC50) was 8.52.
With `CC(=O)c1cn(CC(=O)N2[C@@H]3C[C@@H]3C[C@H]2C(=O)Nc2cc(Br)cc(-c3nnn[nH]3)c2)c2ccccc12` [Example 515, (1R,3S,5R)-2-[2-(3-Acetyl-indol-1-yl)-acetyl]-2-aza-bicyclo[3.1.0]hexane-3-carboxylic acid [3-bromo-5-(2H-tetrazol-5-yl)-phenyl]-amide], the negative logarithm of the IC50 (pIC50) is 6.57.
Turning to `NC(=O)n1cc(NC(=O)N2C[C@@H](C(F)F)C[C@H]2C(=O)NCc2cccc(Cl)c2F)c2ccccc21` [Example 359, 2S,4S)-4-Difluoromethyl-pyrrolidine-1,2-dicarboxylic acid 1-[(1-carbamoyl-1H-indol-3-yl)-amide]2-(3-chloro-2-fluoro-benzylamide], the negative-log IC50 (pIC50) is 6.60.
`NC(=O)n1cc(NC(=O)N2C3CC3C[C@H]2C(=O)NCc2cnc(Cl)s2)c2ccccc21` (stereo partly drawn) [Example 295, (1R,3S,5R)-2-Aza-bicyclo[3.1.0]hexane-2,3-dicarboxylic acid 2-[(1-carbamoyl-1H-indol-3-yl)-amide] 3-[(2-chloro-thiazol-5-ylmethyl)-amide]]: the negative logarithm of the IC50 (pIC50) was 6.82.
As to `CC(=O)c1cn(CC(=O)N2C[C@H](F)C[C@H]2C(=O)NCc2cccc(Cl)c2F)c2cc(-c3nnn[nH]3)ccc12` [Example 617, (2S,4R)-1-{2-[3-Acetyl-6-(1H-tetrazol-5-yl)-indol-1-yl]-acetyl}-4-fluoro-pyrrolidine-2-carboxylic acid 3-chloro-2-fluoro-benzylamide], the pIC50 was 7.55.
The value for `C[C@H](CNC(=O)[C@@H]1C[C@H](N)CN1C(=O)Nc1cn(C(N)=O)c2ccccc12)c1ccccc1` [Example 85, (2S,4S)-4-Amino-pyrrolidine-1,2-dicarboxylic acid 1-[(1-carbamoyl-1H-indol-3-yl)-amide] 2-[((S)-2-phenyl-propyl)-amide]] was 4.95; that for `Cc1cc2c(C(N)=O)nn(CC(=O)N3[C@@H]4C[C@@H]4C[C@H]3C(=O)Nc3cccc(OC(F)(F)F)c3F)c2cn1` [Example 723, 1-{2-[(1R,3S,5R)-3-(2-Fluoro-3-trifluoromethoxy-phenylcarbamoyl)-2-aza-bicyclo[3.1.0]hex-2-yl]-2-oxo-ethyl}-5-methyl-1H-pyrazolo[3,4-c]pyridine-3-carboxylic acid amide] was 7.05; that for `CCO[C@H]1[C@@H](C(=O)NCc2cccc(Cl)c2F)N(C(=O)Cn2cc(C(C)=O)c3cc(C)ncc32)C[C@@H]1F` [Example 667, (2S,3S,4S)-1-[2-(3-Acetyl-5-methyl-pyrrolo[2,3-c]pyridin-1-yl)-acetyl]-3-ethoxy-4-fluoro-pyrrolidine-2-carboxylic acid 3-chloro-2-fluoro-benzylamide formate] was 7.80.
As to `CNC(=O)n1cc(NC(=O)N2[C@@H]3C[C@@H]3C[C@H]2C(=O)NCc2cccc(Cl)c2F)c2ccccc21` [Example 130, (1R,3S,5R)-2-Azabicyclo[3.1.0]hexane-2,3-dicarboxylic acid 3-(3-chloro-2-fluoro-benzylamide) 2-[(1-methylcarbamoyl-1H-indol-3-yl)-amide]], the pIC50 was 7.27.
Turning to `NC(=O)n1cc(NC(=O)N2CCC[C@H]2C(=O)Nc2cccc(OC(F)(F)F)c2)c2ccc(OCc3ccccc3)cc21` [Example 313, (S)-Pyrrolidine-1,2-dicarboxylic acid 1-[(6-benzyloxy-1-carbamoyl-1H-indol-3-yl)-amide]2-[(3-trifluoromethoxy-phenyl)-amide]], the pIC50 was 5.89.
For `NC(=O)c1nn(CC(=O)N2[C@@H]3C[C@@H]3C[C@H]2C(=O)NCc2cccc(Cl)c2F)c2ccccc12` [Example 692, 1-{2-[(1R,3S,5R)-3-(3-Chloro-2-fluoro-benzylcarbamoyl)-2-aza-bicyclo[3.1.0]hex-2-yl]-2-oxo-ethyl}-1H-indazole-3-carboxylic acid amide], the negative-log IC50 (pIC50) was 8.52.
For the molecule `COCCN[C@H]1C[C@@H](C(=O)NCc2cccc(Cl)c2F)N(C(=O)Nc2cn(C(N)=O)c3ccccc23)C1` [Example 426, 2S,4S)-4-(2-Methoxy-ethylamino)-pyrrolidine-1,2-dicarboxylic acid 1-[(1-carbamoyl-1H-indol-3-yl)-amide]2-(3-chloro-2-fluoro-benzylamide], the negative logarithm of the IC50 (pIC50) is 6.36.
Then `NC(=O)n1cc(NC(=O)N2C3CC3C[C@H]2C(=O)NCc2cccc(Cl)c2F)c2ccc(OCCO)cc21` (stereo partly drawn) [Example 395, 1R,3S,5R)-2-Aza-bicyclo[3.1.0]hexane-2,3-dicarboxylic acid 2-{[1-carbamoyl-6-(2-hydroxy-ethoxy)-1H-indol-3-yl]-amide}3-(3-chloro-2-fluoro-benzylamide], with 7.60.
As for `NC[C@@H]1C[C@@H](C(=O)Nc2cccc(OC(F)(F)F)c2)N(C(=O)Nc2cn(C(N)=O)c3ccccc23)C1` [Example 404, (2S,4S)-4-Aminomethyl-pyrrolidine-1,2-dicarboxylic acid 1-[(1-carbamoyl-1H-indol-3-yl)-amide]2-[(3-trifluoromethoxy-phenyl)-amide]], the pIC50 was 6.00.
Turning to `COC(=O)[C@H](CC(C)C)NC(=O)[C@@H]1C[C@H](N)CN1C(=O)Nc1cn(C(N)=O)c2ccccc12` [Example 95, (S)-2-{[(2S,4S)-4-Amino-1-(1-carbamoyl-1H-indol-3-ylcarbamoyl)-pyrrolidine-2-carbonyl]-amino}-4-methyl-pentanoic acid methyl ester], the negative logarithm of the IC50 (pIC50) was 5.87.
On to `CC(=O)c1cn(CC(=O)N2C[C@H](F)C[C@H]2C(=O)Nc2cccc(OC(F)(F)F)c2F)c2ccccc12` [Example 514, (2S,4R)-1-[2-(3-Actyl-indol-1-yl)-acetyl]-4-fluoro-pyrrolidine-2-carboxylic acid (2-fluoro-3-trifluoromethoxy-phenyl)-amide], for which the pIC50 is 7.02.
`Cc1cc2c(C(N)=O)nn(CC(=O)N3[C@@H]4C[C@@H]4C[C@H]3C(=O)Nc3cccc(Br)c3F)c2cn1` [Example 670, 1-{2-[(1R,3S,5R)-3-(3-Bromo-2-fluoro-phenylcarbamoyl)-2-aza-bicyclo[3.l.0]hex-2-yl]-2-oxo-ethyl}-5-methyl-1H-pyrazolo[3,4-c]pyridine-3-carboxylic acid amide]: the negative logarithm of the IC50 (pIC50) was 7.05.
With `CO[C@H]1[C@@H](C(=O)NCc2cccc(Cl)c2F)N(C(=O)Cn2cc(C(C)=O)c3cc(C)ncc32)C[C@@H]1F` [Example 658, (2S,3S,4S)-1-[2-(3-Acetyl-5-methyl-pyrrolo[2,3-c]pyridin-1-yl)-acetyl]-4-fluoro-3-methoxy-pyrrolidine-2-carboxylic acid 3-chloro-2-fluoro-benzylamide formate], the negative-log IC50 (pIC50) is 7.62.
On to `Cc1cnc(CNC(=O)[C@@H]2C[C@H](N)CN2C(=O)Nc2cn(C(N)=O)c3ccccc23)s1` [Example 65, (2S,4S)-4-Amino-pyrrolidine-1,2-dicarboxylic acid 1-[(1-carbamoyl-1H-indol-3-yl)-amide] 2-[(5-methyl-thiazol-2-ylmethyl)-amide]], for which the negative logarithm of the IC50 (pIC50) is 4.88.
In the case of `CC(=O)c1cn(CC(=O)N2[C@@H]3C[C@@H]3C[C@H]2C(=O)NCc2ccc(Cl)s2)c2ncccc12` [Example 484, (1R,3S,5R)-2-[2-(3-Acetyl-pyrrolo[2,3-b]pyridin-1-yl)-acetyl]-2-aza-bicyclo[3.1.0]hexane-3-carboxylic acid (5-chloro-thiophen-2-ylmethyl)-amide], the pIC50 is 6.45.
On to `C[C@@H](NC(=O)[C@@H]1[C@H](O)CCN1C(=O)Nc1cn(C(N)=O)c2ccccc12)c1cccc(Cl)c1F` (single isomer, unassigned) [Example 364], for which the pIC50 is 6.05.
Turning to `CC(=O)c1cn(CC(=O)N2C[C@H](F)C[C@H]2C(=O)NCc2cccc(Cl)c2F)c2ccc(OCc3ncccn3)cc12` [Example 590, (2S,4R)-1-{2-[3-Acetyl-5-(pyrimidin-2-ylmethoxy)-indol-1-yl]-acetyl}-4-fluoro-pyrrolidine-2-carboxylic acid 3-chloro-2-fluoro-benzylamide], the pIC50 is 8.00.
Then `NC(=O)n1cc(NC(=O)N2C[C@@H](N)C[C@H]2C(=O)NCCc2ccccc2F)c2ccccc21` [Example 88, (2S,4S)-4-Amino-pyrrolidine-1,2-dicarboxylic acid 1-[(1-carbamoyl-1Hindol-3-yl)-amide] 2-{[2-(2-fluoro-phenyl)-ethyl]-amide}], with 5.17.
